# Data published in ChEMBL document CHEMBL5390242, “Design, Synthesis, and Antitumor Efficacy of Substituted 2-Amino[1,2,4]triazolopyrimidines and Related Heterocycles as Dual Inhibitors for Microtubule Polymerization and Janus Kinase 2” (J Med Chem, 2023).
# Activity calls are given as the source filed them. The rule behind the calls is not given here.
# How the values were obtained:
# HeLa = experiment: Antiproliferative activity against human HeLa cells assessed as cell growth inhibition incubated for 48 hrs by MTT assay; format: functional, cell-based
# KP-4 = experiment: Antiproliferative activity against human KP-4 cells assessed as cell growth inhibition incubated for 48 hrs by MTT assay; format: functional, cell-based; conditions: KP-4, 48 h
# [1] = molecular target: Tyrosine-protein kinase JAK2 (Homo sapiens, UniProt O60674); experiment: Inhibition of JAK2 (unknown origin) using Poly-(Glu,Tyr 4:1) peptide as substrate at 1 uM in presence of ATP by ADP-Glo reagent based assay relative to control
# Tyrosine-protein kinase JAK2, sequence (O60674 whole entry): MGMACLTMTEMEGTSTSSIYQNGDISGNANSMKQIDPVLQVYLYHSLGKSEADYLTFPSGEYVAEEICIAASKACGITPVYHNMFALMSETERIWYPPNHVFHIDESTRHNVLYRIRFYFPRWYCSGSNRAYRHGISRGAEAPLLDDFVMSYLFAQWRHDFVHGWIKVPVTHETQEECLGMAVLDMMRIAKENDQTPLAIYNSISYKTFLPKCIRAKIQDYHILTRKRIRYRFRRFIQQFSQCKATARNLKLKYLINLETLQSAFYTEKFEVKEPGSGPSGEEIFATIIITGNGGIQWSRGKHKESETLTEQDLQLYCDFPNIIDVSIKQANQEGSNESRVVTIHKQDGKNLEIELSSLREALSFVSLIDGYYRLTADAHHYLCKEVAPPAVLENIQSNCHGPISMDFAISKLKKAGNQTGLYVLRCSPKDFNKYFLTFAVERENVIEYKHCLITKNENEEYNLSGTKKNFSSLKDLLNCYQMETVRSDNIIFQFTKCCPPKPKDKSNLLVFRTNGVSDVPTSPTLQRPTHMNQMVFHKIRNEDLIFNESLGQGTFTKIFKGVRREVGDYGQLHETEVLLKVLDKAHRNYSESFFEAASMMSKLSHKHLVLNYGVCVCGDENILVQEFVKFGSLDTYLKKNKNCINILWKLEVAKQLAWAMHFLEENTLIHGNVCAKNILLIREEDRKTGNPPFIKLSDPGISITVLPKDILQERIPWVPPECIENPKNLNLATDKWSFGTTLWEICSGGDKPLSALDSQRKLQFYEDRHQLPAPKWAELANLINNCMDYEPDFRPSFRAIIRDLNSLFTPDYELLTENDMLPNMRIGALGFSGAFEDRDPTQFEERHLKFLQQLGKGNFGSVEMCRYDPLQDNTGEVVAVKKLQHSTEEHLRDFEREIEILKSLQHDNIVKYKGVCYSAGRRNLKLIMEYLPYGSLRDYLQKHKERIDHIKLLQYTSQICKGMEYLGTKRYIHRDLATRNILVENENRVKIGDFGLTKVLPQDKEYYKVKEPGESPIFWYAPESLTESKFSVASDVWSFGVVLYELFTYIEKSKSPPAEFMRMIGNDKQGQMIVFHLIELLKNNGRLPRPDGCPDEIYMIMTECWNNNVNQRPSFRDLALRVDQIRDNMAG
# A549 [2] = experiment: Induction of apoptosis in human A549 cells at 20 uM incubated for 24 hrs by Annexin V-FITC/PI staining based flow cytometry; format: functional
# A549 [3] = experiment: Induction of apoptosis in human A549 cells at 5 uM incubated for 24 hrs by Annexin V-FITC/PI staining based flow cytometry; format: functional
# [4] = Cytotoxicity against human HaCaT cells assessed as cell growth inhibition incubated for 48 hrs by MTT assay; format: toxicity, cell-based
# A2780 = experiment: Antiproliferative activity against human A2780 cells assessed as cell growth inhibition incubated for 48 hrs by MTT assay; format: functional, cell-based; conditions: A2780, 48 h
# [5] = Resistance index, ratio of IC50 for antiproliferative activity against human A549/DDP cells to IC50 for antiproliferative activity against human A549 cells; format: functional
# [6] = Antiproliferative activity against Chinese hamster CHO cells assessed as cell growth inhibition incubated for 48 hrs by MTT assay; format: toxicity, cell-based, Cricetulus griseus
# [7] = MRT (0 to infinity) in CD-1 mouse at 1 mg/kg,iv measured upto 24 hrs by HPLC-MS/MS analysis; format: ADME, organism-based; conditions: in vivo
# [8] = Tmax in CD-1 mouse at 1 mg/kg,iv measured upto 24 hrs by HPLC-MS/MS analysis; format: ADME, organism-based; conditions: in vivo
# [9] = AUC (0 to infinity) in CD-1 mouse at 10 mg/kg,ip measured upto 24 hrs by HPLC-MS/MS analysis; format: ADME, organism-based; set-up: time < 24 hrs, dose 10 mg/kg, route ip; conditions: in vivo
# [10] = Half life in CD-1 mouse at 10 mg/kg,ip measured upto 24 hrs by HPLC-MS/MS analysis; format: ADME, organism-based; conditions: in vivo
# [11] = AUC (0 to infinity) in CD-1 mouse assessed as AUC (0 to infinity) of metabolite at 10 mg/kg,ip measured upto 24 hrs by HPLC-MS/MS analysis; format: ADME, organism-based; set-up: time < 24 hrs, dose 10 mg/kg, route ip; conditions: in vivo
# [12] = Oral bioavailability in CD-1 mouse assessed as Oral bioavailability of metabolite at 10 mg/kg,ip measured upto 24 hrs by HPLC-MS/MS analysis; format: ADME, organism-based; conditions: in vivo
# Tubulin (Homo sapiens) = Tubulin (Homo sapiens) (UniProt P68371+Q9H4B7+P0DPH7+P68366+Q13509+Q71U36+P04350+Q3ZCM7+P07437+P68363+Q9BQE3+Q6PEY2+Q13885+Q9BVA1+Q9BUF5); experiment: Disruption of microtubule assembly in human A549 cells at 0.1 uM incubated for 6 hrs by Hoechst33342 staining based immunofluorescence analysis; format: cell-based
# [13] = molecular target: T1, JAK2-STAT3 (Homo sapiens) (UniProt O60674+P40763); experiment: Inhibition of JAK2/STAT3 signalling pathway in human A549 cells assessed as downregulation of JAK2 phosphorylation incubated for 24 hrs by Western blotting analysis; format: cell-based
# [14] = molecular target: T1, JAK2-STAT3 (Homo sapiens); experiment: Inhibition of JAK2/STAT3 signalling pathway in human A549 cells assessed as effect on JAK2 protein level at 5 to 20 uM incubated for 24 hrs by Western blotting analysis; format: cell-based; conditions: dose 5-20 µM
# A549 [15] = experiment: Induction of cell cycle arrest in human A549 cells assessed as accumulation of cells at G2/M phase at 5 nM incubated for 24 hrs by PI/RNase staining based flow cytometry analysis; format: functional
# A549 [16] = experiment: Induction of apoptosis in human A549 cells assessed as early apoptotic cells at 20 nM incubated for 24 hrs by Annexin V-FITC/PI staining based flow cytometry (reference value: 4.61 %); format: functional
# A549 [17] = experiment: Induction of mitochondrial membrane potential loss in human A549 cells by measuring red fluorescence at 20 nM incubated for 16 hrs by JC-1 staining based flow cytometry analysis (reference value: 99.3 %); format: functional
# A549 [18] = experiment: Induction of mitochondrial membrane potential loss in human A549 cells by measuring green fluorescence at 5 nM incubated for 16 hrs by JC-1 staining based flow cytometry analysis (reference value: 0.7 %); format: functional
# [19] = Toxicity in Balb/c mouse xenografted with human A549 cells assessed as effect on liver morphology at 50 mg/kg,ip administration measured after 31 days by Hematoxylin-eosin staining based microscopy; format: organism-based; conditions: in vivo, 744 h, time 31 day
# [20] = Toxicity in Balb/c mouse xenografted with human A549 cells assessed as effect on spleen morphology at 50 mg/kg,ip administration measured after 31 days by Hematoxylin-eosin staining based microscopy; format: organism-based; conditions: in vivo, 744 h, time 31 day
# [21] = Toxicity in Balb/c mouse xenografted with human A549 cells assessed as effect on kidney morphology at 50 mg/kg,ip administration measured after 31 days by Hematoxylin-eosin staining based microscopy; format: organism-based; conditions: in vivo, 744 h, time 31 day
structure (smiles),measurement,setting,value
COc1cc(-c2nccc3nc(Nc4cccc5[nH]ccc45)nn23)cc(OC)c1OC,IC50,HeLa,15 nM
same,IC50,KP-4,13 nM
same,inhibition,[1],97%
same,Activity,A549 [2],80.7%
same,Activity,A549 [3],8.9%
same,IC50 at 48 h,[4],450 nM
same,IC50,A2780,75 nM
same,Ratio IC50,[5],0.5
same,IC50 at 48 h,[6],24 nM
same,MRT inf,[7],7.1 h
same,Tmax,[8],6 min
same,AUC(0-inf),[9],580 ng·h/mL
same,half-life,[10],5.5 h
same,AUC,[11],2604.3 ng·h/mL
same,F,[12],69.7%
same,Activity,Tubulin (Homo sapiens),Active
same,inhibition,[13],Dose-Dependent Effect
same,inhibition,[14],inactive
same,Activity,A549 [15],15.6%
same,Activity,A549 [16],34.6%
same,Activity,A549 [17],55.9%
same,Activity,A549 [18],10.9%
same,Activity,[19],Non-Toxic
same,Activity,[20],Non-Toxic
same,Activity,[21],Non-Toxic
